Data taken from PMC11521309, “A novel 4-aminoquinoline chemotype with multistage antimalarial activity and lack of cross-resistance with PfCRT and PfMDR1 mutants” (PLOS Pathogens, 2024).
“And” between values parts separate entries of the source, which are not always exact repeats. Equal entries are not always repeated. Where two headings read alike, the source gives them in different places.

Key:
[1] = system: P. falciparum NF10^YF; parameters: method as in ref 1 Veiga et al. 2016; settings: means ± SEM, N 6; ref 1 Veiga et al. 2016; read-out: IC50 NF10YF; cited from earlier work
[2] = system: P. falciparum Dd2^3D7; parameters: key: S: sensitive; R: resistant; settings: ref [19],[20],[51]; cited from earlier work
[3] = system: P. falciparum 7G8^C350R; parameters: key to Phenotype, 7G8^C350R: S: sensitive; R: resistant; settings: cited from earlier work
[4] = system: P. falciparum 7G8^F145I; parameters: key to Phenotype, 7G8^F145I: S: sensitive; R: resistant; settings: cited from earlier work
[5] = system: P. falciparum 3D7 ABS parasites; test: ABS parasite survival assay, 72 h, flow cytometry; format: cell-based; settings: Plasmodium falciparum
Protocol: (§1) P. falciparum ABS parasites were cultured at 3% hematocrit in human O^+ RBCs in RPMI-1640 media supplemented with 25 mM HEPES, 50 mg/L hypoxanthine, 2 mM L-glutamine, 0.21% sodium bicarbonate, 0.5% (w/v) AlbuMAXII (Invitrogen) and 10 μg/mL gentamycin. Culture flasks were kept in modular incubator chambers (Billups-Rothenberg) in a 5% O2, 5% CO2, and 90% N2 atmosphere at 37°C. Synchronized ring-stage parasites were obtained by two consecutive rounds of treatment with 5% D-sorbitol in 48-hour intervals. […] This was done by exposing cultures at 1% hematocrit and 0.3% parasitemia in 96-well plates in the presence of drugs in a two-fold 10 or 12-point serial dilution in duplicate along with drug-free controls. After a 72-hour incubation, parasite survival was assessed by flow cytometry on an iQue flow cytometer (Sartorius) using SYBR Green and MitoTracker Deep Red FM (Life Technologies) as nuclear stain and vital dye, respectively. Parasite survival was determined as a percentage relative to drug-free control. IC50 values were interpolated from log concentration versus response curves in Prism 9 (GraphPad Prism Software Inc.).

[6] = system: P. falciparum Dd2 ABS parasites; test: ABS parasite survival assay, 72 h, flow cytometry; format: cell-based; settings: Plasmodium falciparum
Protocol: as §1

[7] = system: PfCRT variants (7G8, 7G8^F145I, 7G8^C350R); test: SSM-based electrophysiology (SURFE2R N1) of PfCRT proteoliposomes; format: biochemical, Plasmodium falciparum; settings: 10 μM, distinct PfCRT isoforms
Protocol: Solid Supported Membrane (SSM)-based electrophysiological measurements were performed using SURFE^2R N1 technology (Nanion Technologies, Inc.) according to published protocols. Briefly, sensors were coated with 1-octadecanethiol (Sigma-Aldrich), rinsed, and 1,2-diphytanoyl-sn-glycero-3-phosphocholine (Avanti Polar Lipids, Inc) was added. Immediately, the sensor was filled with 50 μL non-activating buffer (10 mM Tris-MES, pH 5.5) and PfCRT-containing proteoliposomes (PLs). To generate a K^+ diffusion potential-driven ΔΨ, valinomycin was included at a final concentration of 80 nM [34, 35]. The activating solution (10 mM Tris-MES, pH 5.5 containing either 10 μM CQ, PPQ, LDT-623, pyrimethamine, or atovaquone) was applied using a single-solution exchange protocol (activating buffer incubation for 1 second). Each measurement was repeated at least twice employing at least three different sensors. Peak currents for PfCRT were corrected by subtracting the peak currents recorded with control liposomes (lacking this transporter). To acquire the PfCRT-elicited charge (Coulomb) movement associated with drug transport, the area under the curve (current as a function of time) was analyzed with GraphPad Prism version 10.

[8] = system: P. falciparum 7G8^F145I; test: ABS susceptibility, pfcrt-edited line; format: cell-based; settings: Plasmodium falciparum
Protocol: as §1

[9] = system: P. falciparum 7G8^7G8; test: ABS susceptibility, pfcrt-edited line; format: cell-based; settings: Plasmodium falciparum
Protocol: as §1

[10] = system: P. falciparum Dd2^H97Y; test: ABS susceptibility, pfcrt-edited line; format: cell-based; settings: Plasmodium falciparum
Protocol: as §1

[11] = system: P. falciparum Dd2^G353V; test: ABS susceptibility, pfcrt-edited line; format: cell-based; settings: Plasmodium falciparum
Protocol: as §1

[12] = system: P. falciparum Dd2-Polδ parent culture; test: ABS susceptibility after resistance selection, parental line; format: cell-based, Plasmodium falciparum; settings: for % Parasite survival: Dd2 Pol D parent, rep 1-5
Protocol: as §1
Resistance to LDT-623 was assessed using single-step in vitro resistance selection protocols. […] Dd2-Pol δ is a hypermutable line with two point mutations in DNA polymerase δ that compromise its proofreading activity Cultures were monitored daily by thin blood smears until live parasites were no longer detectable. Drug-containing media was changed daily until parasites cleared, and every other day thereafter. Cultures were passaged once weekly by reducing the volume by 25% and replacing 1/3 of RBCs. Recrudescence monitoring was carried out twice a week by thin blood smears for 60 days. In the event of recrudescence, parasite susceptibility to LDT-623 was tested as described above.

What does the source list for `CCN(CC)CCCC(C)Nc1ccnc2cc(Cl)ccc12` (centres unmarked) [CQ, chloroquine]?
IC50 [1]: 347 ± 24.4 nM; Phenotype, Dd2^3D7 [2]: S; IC50 ([3]; 7G8C350R, mean ± SEM, ref 3 (Kim et al., 2019)): 6.9 ± 0.3 nM; Phenotype, 7G8^C350R ([3]; ref [19],[20],[51]): S; IC50 ([4]; 7G8F145I, mean ± SEM, ref 3 (Kim et al., 2019)): 7.3 ± 0.4 nM; Phenotype, 7G8^F145I ([4]; ref [19],[20],[51]): S

With `COc1cc2nccc(Nc3cccc(Oc4ccccc4)c3)c2cc1OC` [LDT-623] as the compound, how does the IC50 ([5]; 3D7, ABS parasites, N = 3, read-out: IC50 3D7) read?
Its IC50 is 130 ± 10 nM.

What about the IC50 ([5]; 3D7, CQ-sensitive strain, read-out: IC50 3D7) of the same compound?
Its IC50 is 127 nM.

What about the IC50 ([5]; 3D7, read-out: IC50 3D7) of the same compound?
The IC50 was 126.6 ± 0.1 nM.

And the IC50 ([6]; DD2, ABS parasites, N = 3, read-out: IC50 Dd2)?
The IC50 was 300 ± 30 nM.

What about the IC50 ([6]; DD2, CQ-resistant strain, read-out: IC50 Dd2) of the same compound?
Its IC50 is 365 nM.

And the IC50 ([6]; DD2, read-out: IC50 Dd2)?
Its IC50 is 365 ± 17.5 nM.

What about the “PfCRT-specific currents” value [7] of the same compound?
Its value is “elicits the same magnitude of currents as CQ and PPQ”.

What about the IC50 [8] of the same compound?
Its IC50 is 439 ± 22.7 nM.

What about the IC90 [8] of the same compound?
Its IC90 is 6570 ± 3250 nM.

And the IC50 [9]?
Its IC50 is 579 ± 67.5 nM.

And the IC90 [9]?
The IC90 was 980 ± 133 nM.

And the IC50 [10]?
Its IC50 is 416 ± 59.6 nM.

And the IC90 [10]?
Its IC90 is 5270 ± 99.2 nM.

What about the IC50 [11] of the same compound?
Its IC50 is 456 ± 9.6 nM.

And the IC90 [11]?
Its IC90 is 6510 ± 1540 nM.

And the “mean AUC of survival curve” value ([12]; Dd2-Polδ parent culture)?
Its value is 35.4.

And the “% Parasite survival” value ([12]; 0.09 uM)?
Its value is 76.35% and 85.80% and 91.78% and 97.25%.

And the “% Parasite survival” value ([12]; 0.19 uM)?
The value was 89.20% and 72.57% and 70.57% and 79.41% and 83.99%.

And the “% Parasite survival” value ([12]; 25 uM)?
The value was 0.00% and 0.89%.

What about the “% Parasite survival” value ([12]; 50 uM) of the same compound?
The value was 0.00% and 1.83%.
